Measured values reported in patent US20020169101A1, “Treatment of sexual dysfunction” (priority 1999, published 2002).
“Also recorded” adds a separate entry of the source.

Test system: female rat sexual proceptivity
Test: Female rat sexual proceptivity test (time investigating male vs female stimulus)
Format: in vivo
Experimental: Ovariectomised adult female Sprague Dawley rats (180-200 g, from Charles River) were housed in groups of 6 in a reversed lighting system of 12 h light:dark (lights off 7.00-19.00 h). Two weeks after ovariectomy they were used for sexual activity tests. The experiments started at least 5 h into the dark period.
Tests were carried out in a circular arena of 90 cm diameter, surrounded by a 30 cm high wall. Two small cages with wire-mesh front (15×15 cm) are fixed into the wall such that the front of the cage is <> with the wall and the 2 cages are opposite each other. They contained two stimuli animals: an intact sexually experienced male and a receptive female (ovariectomised, primed with 5 μg oestradiol benzoate dissolved in corn oil and injected subcutaneously 48 hours before the test and with 0.5 mg of progesterone four hours before the test). Sexually naive test and control animals were used. Forty eight hours before the tests, both the test and control animals were primed with 5 μg oestradiol benzoate. For animals used as positive controls, progesterone (0.5 mg/0.1 ml) was dissolved in corn oil and administered subcutaneously (s.c.), 4 h before the test. Test and control animals were introduced one at a time for 10 minute periods into the arena. During the 10 min test, the time that the test or positive control animal spent investigating each stimulus animal was noted. The arena was thoroughly cleaned between animals. The position of the male/female stimuli boxes was randomised between animals, in order to avoid place preference. The difference in the percentage of time spent investigating the male minus the female stimuli was calculated, out of the total time spent investigating stimuli animals.
Compound (1) was dissolved in 100% β-cyclodextrin and then diluted with saline to a final solution of 50% 2-hydroxypropyl-β-cyclodextrin. It was administered intraperitoneally (i.p.) at doses of 3 and 10 mg/kg, in a dosing volume of 1 ml/kg, 1 h before tests. Progesterone (0.5 mg/0.1 ml) was dissolved in corn oil and administered subcutaneously (s.c.), 4 h before test, as a positive control.
Ovariectomised adult female Sprague Dawley rats (180-200 g) were housed in groups of 5 in a reversed lighting system of 12 h light:dark (lights off 5.00-17.00 h). They were used for the experiments at least two weeks after ovariectomy. Forty eight hours before tests, the animals were primed with oestradiol benzoate (5 μg/[…] in corn oil, s.c.). On day 1, progesterone (0.5 mg/0.1 ml, in corn oil, s.c.) was administered to one of the groups 4 h before tests, as a positive control. Compound (1) (15 mg/kg, i.p.) was administered in 50% 2-hydroxypropyl-β-cyclodextrin, 1 h before tests. The test lasted 10 minutes and was carried out as described before. The difference in the percentage of time spent investigating the male minus the female stimuli was calculated, out of the total time spent investigating stimuli animals. Animals were submitted to a test on day 1 and on day 15. From day 2 to 14 the Compound (1) group received a daily injection of the compound (15 mg/kg, i.p.), while both the vehicle and the progesterone groups received an injection of vehicle. On day 15 the test took place again, as described for day 1.
Ovariectomised female rats (Sprague Dawley, obtained from Charles River, UK) were stereotaxically implanted (coordinates 0.89 mm behind Bregma, 1.3 mm lateral and 2.5 mm vertical) with stainless steel cannulae (6 mm long, O.D. 0.75 mm), held in place with dental cement. Animals were housed in groups of three and returned to a reversed lighting system of 12 h light:dark (lights off 5.00-17.00 h). Correct placement of the cannulae was assessed post-mortem. Rats were used for tests two weeks after ovariectomy (one week after cannulation). The experiments started at least 5 h into the dark period. […]

COc1ccc(C2(CNC(=O)[C@](C)(Cc3c[nH]c4ccccc34)NC(=O)Nc3ccc([N+](=O)[O-])cc3)CCCCC2)nc1 [Compound (1), (S) 3-(1H-Indol-3-yl)-N-[1-(5-methoxy-pyridin-2-yl)-cyclohexyl-methyl]-2-methyl-2-[3-(4-nitro-phenyl)-ureido]-propionamide]
body weight, general behaviour, tolerability on repeated administration (15 mg/kg i.p. daily for 15 days, female rats): no changes in body weight or general behaviour; also recorded: well tolerated
proceptivity on day 1 vs vehicle (Compound (1) 15 mg/kg i.p. 1 h before test, progesterone 0.5 mg s.c. 4 h before test (FIG. 3)): stimulatory effect on proceptivity
percentage of time spent investigating the male stimulus (i.c.v., 3-30 μg/rat, 10 min before test (FIG. 4)): dose-dependently (3-30 μg/rat) increased the percentage of time spent investigating the male stimulus
percentage of time spent investigating the male stimulus (i.p., 3 and 10 mg/kg, 1 h before test, vs vehicle (FIG. 1)): dose-dependently (3 mg/kg-10 mg/kg) increased the percentage of time spent investigating the male stimulus
